Data taken from US11311553B1, “Methods of treating 4-repeat tauopathies” (priority 2020, dated 2022).

What was measured:
[1] = system: PSP; details: literature clinical trials in PSP patients; cited from earlier work
[2] = 1-hydroxy (M3) metabolite formed in vivo; cited from earlier work
[3] = system: subjects with probable or possible PSP; experiment: Fasudil treatment of subjects with probable or possible PSP, assessed at baseline, six months and one year; format: in vivo, human; details: fasudil 180 mg/day (60 mg tid)

In the case of `CC[C@H](C)[C@H](NC(=O)[C@H](CO)NC(=O)[C@@H](NC(=O)[C@@H]1CCCN1C(=O)[C@H](C)NC(=O)[C@@H](N)CC(N)=O)C(C)C)C(=O)N1CCC[C@H]1C(=O)N[C@@H](CCC(N)=O)C(=O)O` [Davunetide], the “clinical effect / benefit in PSP” value [1] is given as “not shown not to be effective”.

In the case of `O=S(=O)(c1cccc2c(O)nccc12)N1CCCNCC1` [M3, hydroxyfasudil], the half-life [2] is given as “about 8 hours”.

In the case of `O=C(Oc1ccccc1C(=O)O)c1ccccc1O` [Salsalate], the “clinical effect / benefit in PSP” value [1] is listed as “failed”.

For `C=CC1O[C@H]2C[C@H]3OC[C@@]3(OC(C)=O)[C@H]3[C@H](OC(=O)c4ccccc4)[C@]4(O)C[C@H](OC(=O)[C@H](O)[C@H](CC(C)C)NC(=O)OC(C)(C)C)C(C)=C([C@H](OC(C)=O)[C@H](O1)[C@]23C)C4(C)C` (some centres unmarked) [TPI 287], the “clinical effect / benefit in PSP” value [1] is listed as “failed to show any effect”.

For `COC1=C(OC)C(=O)C(C/C=C(\C)CC/C=C(\C)CC/C=C(\C)CC/C=C(\C)CC/C=C(\C)CC/C=C(\C)CC/C=C(\C)CC/C=C(\C)CC/C=C(\C)CCC=C(C)C)=C(C)C1=O` [coenzyme Q10], the “clinical effect / benefit in PSP” value [1] is listed as “failed to provide benefit”.

For `Cl.O=S(=O)(c1cccc2cnccc12)N1CCCNCC1` [fasudil, Hexahydro-1-(5-isoquinolinesulfonyl)-1H-1,4-diazepine monohydrochloride hemihydrate], the Oculomotor parameters [3] was “improve” and the sleep parameters [3] was “improve”.

For `Nc1nc2ccc(OC(F)(F)F)cc2s1` [riluzole], the “clinical effect / benefit in PSP” value [1] is listed as “failed to demonstrate effects”.

For `O=c1sn(-c2cccc3ccccc23)c(=O)n1Cc1ccccc1` [tideglusib], the “clinical effect / benefit in PSP” value [1] is given as “failed to show benefit”.

B1: Gosuranemab: a humanized monoclonal antibody that targets N-terminal tau (antibody, chains of the INN, looked up, V domains shown)
VH: EVHLVESGGALVKPGGSLRLSCAASGFSFSKYGMSWVRQAPGKGLEWVATISSSGSRTYYPDSVKGRFTISRDNAKNTLYLQMNSLRAEDTAMYYCSISWDGAMDYWGQGTTVTVSS
VL: DVVMTQSPLSLPVTLGQPASISCKSSQSIVHSNGNTYLEWYLQKPGQSPQLLVYKVSNRFSGVPDRFSGSGSGTDFTLKISRVEAEDVGTYYCFQGSLVPWAFGGGTKVEIK
For B1, the “clinical effect / benefit in PSP” value [1] is listed as “no effect”.

B2: ABBV-8E12: humanized anti-tau monoclonal antibody (antibody, chains of the INN, looked up, V domains shown)
VH: EVKVVESGGGLVQPGGSMKLSCVVSGFTFSNYWVNWVRQAPGKGLEWVAQIRLKSDNYATHYEESVKGRFTISRDDSKSSVYLQMNNLRAEDSGIYYCTNWEDYWGQGTTVTVSS
VL: DIVLTQSPDSLAVSLGERATISCRASQSVSTSRYSYIHWYQQKPGQPPKLLIKYASNLESGVPSRFSGSGSGTDFTLNIHPLEPEDFATYYCHHSWEIPLTFGQGTKLEIK
For B2, the “clinical effect / benefit in PSP” value [1] is given as “failed to demonstrate an effect”.
